# Source: ChEMBL document CHEMBL4813920, “Metronidazole-conjugates: A comprehensive review of recent developments towards synthesis and medicinal perspective” (Eur J Med Chem, 2021)
# Key:
# B16-F10 = test: Antiproliferative activity against mouse B16-F10 cells incubated for 24 to 48 hrs by MTT assay; type: functional, cell-based
# MDA-MB-231 = test: Antiproliferative activity against human MDA-MB-231 cells after 24 hrs by MTT assay; type: functional, cell-based; conditions: MDA-MB-231, 24 h
# HEK293 = test: Cytotoxicity against HEK293 cells after 24 hrs by MTT assay; type: cell-based; conditions: Homo sapiens, HEK293, 24 h
# MCF7 = test: cells; conditions: Homo sapiens, MCF7, 24 h
# Entamoeba histolytica [1] = test: Antiamoebic activity against Entamoeba histolytica HM-1:IMSS trophozoites measured after 72 hrs by microdilution method; type: functional, organism-based
# [2] = target: Telomerase reverse transcriptase (Homo sapiens, UniProt O14746); test: Inhibition of telomerase in human SGC-7901 cell extract by TRAP assay
# U-251 = test: Antiproliferative activity against human U-251 cells incubated for 24 to 48 hrs by CCK8 assay; type: functional, cell-based
# A549 [3] = test: Antiproliferative activity against human A549 cells incubated for 24 to 48 hrs by CCK8 assay; type: functional, cell-based
# HeLa = test: Antiproliferative activity against human Hela cells incubated for 24 to 48 hrs by CCK8 assay; type: functional, cell-based
# HepG2 = test: Antiproliferative activity against human HepG2 cells incubated for 24 to 48 hrs by CCK8 assay; type: functional, cell-based
# Bacillus spizizenii [4] = test: Antibacterial activity against Bacillus subtilis ATCC 6633 incubated for 24 hrs by two fold serial dilution method; type: functional
# [5] = Acute oral toxicity in mouse assessed as induction of mortality measured once daily for 14 days; conditions: in vivo, time 14 day
# Pseudomonas aeruginosa [6] = test: Antibacterial activity against Pseudomonas aeruginosa ATCC 13525 incubated for 24 hrs by two fold serial dilution method; type: functional
# Escherichia coli [7] = test: Antibacterial activity against Escherichia coli ATCC 35218 incubated for 24 hrs by two fold serial dilution method; type: functional
# [8] = Inhibition of Escherichia coli N-terminal His-tagged FabH expressed in Escherichia coli BL21(DE3) by liquid scintillation counting method
# Staphylococcus aureus [9] = test: Antibacterial activity against Staphylococcus aureus ATCC 6538 incubated for 24 hrs by two fold serial dilution method; type: functional
# [10] = Acute oral toxicity in mouse assessed as behavioral changes measured once daily for 14 days; conditions: in vivo, time 14 day
# [11] = Acute oral toxicity in mouse assessed as signs of gross toxicity measured once daily for 14 days; conditions: in vivo, time 14 day
# A549 [12] = test: Anticancer activity against human A549 cells assessed as inhibition of cell proliferation at 0.5 uM measured after 48 hrs by CCK8 assay relative to control; type: functional
# NCI-H446 = test: Anticancer activity against human NCI-H446 cells assessed as inhibition of cell proliferation at 0.5 uM measured after 48 hrs by CCK8 assay relative to control; type: functional
# [13] = Selectivity index, ratio of CC50 for cytotoxicity against human MT4 cells to EC50 for antiviral activity against HIV1 3B infected in human MT4 cells; type: toxicity, cell-based; conditions: read-out: Ratio CC50/EC50
# [14] = test system: Human immunodeficiency virus 1; test: Antiviral activity against HIV1 3B infected in human MT4 cells assessed as reduction in virus-induced cell death incubated for 5 days by MTT assay; type: functional, organism-based; conditions: Human immunodeficiency virus 1, 3B, MT4, 120 h
# [15] = Cytotoxicity against human MT4 cells assessed as reduction in cell viability after 5 days by MTT assay; type: cell-based; conditions: time 5 day
# Pseudomonas aeruginosa [16] = test: Antibacterial activity against Pseudomonas aeruginosa ATCC 27853 by microbroth dilution method; type: functional
# Acinetobacter baumannii = test: Antibacterial activity against Acinetobacter baumannii by microbroth dilution method; type: functional
# Enterococcus faecalis = test: Antibacterial activity against Enterococcus faecalis by microbroth dilution method; type: functional
# Escherichia coli [17] = test: Antibacterial activity against Escherichia coli by microbroth dilution method; type: functional
# Staphylococcus aureus [18] = test: Antibacterial activity against Staphylococcus aureus ATCC 6538 by MH media dilution method; type: functional
# Pseudomonas aeruginosa [19] = test: Antibacterial activity against Pseudomonas aeruginosa ATCC 13525 by MH media dilution method; type: functional
# Escherichia coli [20] = test: Antibacterial activity against Escherichia coli ATCC 35218 by MH media dilution method; type: functional
# [21] = Inhibition of Staphylococcus aureus TyrRS using L-tyrosine and tRNA as substrate preincubated for 10 mins followed by substrate addition by liquid scintillation counting method
# Bacillus spizizenii [22] = test: Antibacterial activity against Bacillus subtilis ATCC 6633 by MH media dilution method; type: functional
# Proteus vulgaris [23] = test: Potency index, ratio of Norfloxacin MIC to test compound MIC for antibacterial activity against Proteus vulgaris by two-fold serial dilution technique; type: functional
# Proteus vulgaris [24] = test: Antibacterial activity against Proteus vulgaris by two-fold serial dilution technique; type: functional
# Proteus vulgaris [25] = test: Potency index, ratio of Metronidazole MIC to test compound MIC for antibacterial activity against Proteus vulgaris by two-fold serial dilution technique; type: functional
# Staphylococcus aureus [26] = test: Antibacterial activity against Methicillin-resistant Staphylococcus aureus N315 by two-fold serial dilution technique; type: functional
# Shigella dysenteriae = test: Antibacterial activity against Shigella dysenteriae by two-fold serial dilution technique; type: functional
# Proteus vulgaris [27] = test: Potency index, ratio of Chloromycin MIC to test compound MIC for antibacterial activity against Proteus vulgaris by two-fold serial dilution technique; type: functional
# Saccharomyces cerevisiae = test: Antifungal activity against Beer yeast by two-fold serial dilution technique; type: functional
# Cyberlindnera jadinii = test: Antifungal activity against Candida utilis by two-fold serial dilution technique; type: functional; conditions: Williopsis jadinii
# Escherichia coli [28] = test: Antibacterial activity against Escherichia coli DH52 by two-fold serial dilution technique; type: functional
# [29] = Cytotoxicity against African green monkey Vero cells incubated for 48 hrs by sulforhodamine B method; type: cell-based; conditions: chlorocebus sabaeus
# [30] = Selectivity index, ratio of CC50 for African green monkey Vero cells to IC50 for antigiardial activity against Giardia intestinalis MSS:0696:1; type: toxicity; conditions: read-out: Ratio CC50/IC50
# [31] = Selectivity index, ratio of CC50 for African green monkey Vero cells to IC50 for antigiardial activity against Trichomonas vaginalis GT3; type: toxicity; conditions: read-out: Ratio CC50/IC50
# Trichomonas vaginalis = test: Anti-trichomonas activity against Trichomonas vaginalis GT3 incubated for 48 hrs; type: functional, organism-based; conditions: GT3, 48 h
# Giardia intestinalis [32] = test: Antigiardial activity against Giardia intestinalis MSS:0696:1 incubated for 48 hrs; type: functional, organism-based; conditions: Giardia duodenalis, MSS:0696:1, 48 h
# Entamoeba histolytica [33] = test: Antiamoebic activity against Entamoeba histolytica HM-1:IMSS trophozoites incubated for 2 days under anaerobic condition; type: functional, organism-based; conditions: 48 h
# Giardia intestinalis [34] = test: Antigiardial activity against Giardia intestinalis WB incubated for 2 days under anaerobic condition; type: functional, organism-based; conditions: Giardia duodenalis, 48 h
# Helicobacter pylori [35] = test: Antimicrobial activity against Helicobacter pylori SS1 clinical isolate2 for 3 days by agar dilution method; type: functional; conditions: SS1 clinical isolate2, 72 h, time 3 day
# Helicobacter pylori [36] = test: Potency index, ratio of MIC for metronidazole to test compound for Helicobacter pylori clinical isolate8 for 3 days by agar dilution method; type: functional; conditions: time 3 day
# Helicobacter pylori [37] = test: Antimicrobial activity against Helicobacter pylori ATCC 43504 incubated for 3 days by agar dilution method; type: functional; conditions: NCTC 11637 = CCUG 17874 = ATCC 43504, 72 h, time 3 day
# Helicobacter pylori [38] = test: Antimicrobial activity against Helicobacter pylori clinical isolate8 for 3 days by agar dilution method; type: functional; conditions: clinical isolate8, 72 h, time 3 day
# Helicobacter pylori [39] = test: Potency index, ratio of MIC for metronidazole to test compound for Helicobacter pylori clinical isolate3 for 3 days by agar dilution method; type: functional; conditions: time 3 day
# Helicobacter pylori [40] = test: Potency index, ratio of MIC for metronidazole to test compound for Helicobacter pylori ATCC 43504 incubated for 3 days by agar dilution method; type: functional, NCTC 11637 = CCUG 17874 = ATCC 43504; conditions: time 3 day
# Helicobacter pylori [41] = test: Antimicrobial activity against Helicobacter pylori SS1 incubated for 3 days by agar dilution method; type: functional; conditions: SS1, 72 h, time 3 day
# Helicobacter pylori [42] = test: Potency index, ratio of MIC for metronidazole to test compound for Helicobacter pylori clinical isolate2 for 3 days by agar dilution method; type: functional; conditions: time 3 day
# Helicobacter pylori [43] = test: Antimicrobial activity against Helicobacter pylori clinical isolate3 for 3 days by agar dilution method; type: functional; conditions: clinical isolate3, 72 h, time 3 day
# Helicobacter pylori [44] = test: Potency index, ratio of MIC for metronidazole to test compound for Helicobacter pylori SS1 incubated for 3 days by agar dilution method; type: functional; conditions: time 3 day
# Chain of Telomerase reverse transcriptase (O14746 whole entry): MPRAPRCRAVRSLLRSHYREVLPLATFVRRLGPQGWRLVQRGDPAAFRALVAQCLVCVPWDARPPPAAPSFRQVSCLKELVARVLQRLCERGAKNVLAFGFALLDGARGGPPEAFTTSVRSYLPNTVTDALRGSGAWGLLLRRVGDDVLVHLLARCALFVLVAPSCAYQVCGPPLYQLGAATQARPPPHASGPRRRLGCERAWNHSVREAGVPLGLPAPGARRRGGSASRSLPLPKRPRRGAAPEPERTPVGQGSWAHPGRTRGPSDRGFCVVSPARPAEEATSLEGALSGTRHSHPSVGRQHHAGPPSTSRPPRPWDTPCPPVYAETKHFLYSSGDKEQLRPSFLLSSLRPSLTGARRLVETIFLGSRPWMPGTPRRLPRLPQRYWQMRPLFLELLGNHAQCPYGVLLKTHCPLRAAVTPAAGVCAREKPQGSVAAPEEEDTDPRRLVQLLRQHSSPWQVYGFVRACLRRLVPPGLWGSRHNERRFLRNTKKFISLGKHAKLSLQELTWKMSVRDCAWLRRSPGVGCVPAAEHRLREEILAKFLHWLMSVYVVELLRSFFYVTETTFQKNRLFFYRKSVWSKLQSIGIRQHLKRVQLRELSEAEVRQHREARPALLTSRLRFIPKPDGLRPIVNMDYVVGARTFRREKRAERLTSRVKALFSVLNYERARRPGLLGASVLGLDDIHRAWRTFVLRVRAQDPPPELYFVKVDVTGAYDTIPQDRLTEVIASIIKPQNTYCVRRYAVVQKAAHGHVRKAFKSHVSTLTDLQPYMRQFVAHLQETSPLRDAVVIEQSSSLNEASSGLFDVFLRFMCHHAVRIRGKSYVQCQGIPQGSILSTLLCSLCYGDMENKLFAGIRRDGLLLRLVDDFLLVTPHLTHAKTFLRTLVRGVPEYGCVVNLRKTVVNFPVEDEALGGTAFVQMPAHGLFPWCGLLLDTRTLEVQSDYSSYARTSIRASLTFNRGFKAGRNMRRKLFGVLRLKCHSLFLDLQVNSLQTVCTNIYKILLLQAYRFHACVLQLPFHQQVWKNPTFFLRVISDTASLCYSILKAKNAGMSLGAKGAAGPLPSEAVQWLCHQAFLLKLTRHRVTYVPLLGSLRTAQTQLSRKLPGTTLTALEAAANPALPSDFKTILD
smiles,measurement,setting,value
Cc1ccnc(NS(=O)(=O)c2ccc(/N=C\c3ccc(OCCn4c([N+](=O)[O-])cnc4C)cc3)cc2)n1,IC50,B16-F10,0.22 µM
Cc1ncc([N+](=O)[O-])n1Cc1cn(CCCCN2C(=O)C(=O)c3cc(Cl)ccc32)nn1,IC50,MDA-MB-231,26.1 µM
same,IC50,HEK293,> 100 µM
same,IC50,MCF7,54.2 µM
Cc1ncc([N+](=O)[O-])n1CCOC(=O)Nc1ccc(OCc2cccc(I)c2)cc1,IC50,Entamoeba histolytica [1],0.26 µM
O=C(OCCn1c([N+](=O)[O-])cnc1/C=C/c1ccc2ccccc2c1)c1nccc2ccccc12,IC50,[2],0.98 µM
same,IC50,U-251,0.32 µM
same,IC50,A549 [3],0.11 µM
same,IC50,HeLa,0.05 µM
same,IC50,HepG2,0.1 µM
Cc1cc(C)nc(NS(=O)(=O)c2ccc(/N=C/c3ccc(C(=O)OCCn4c([N+](=O)[O-])cnc4C)cc3)cc2)n1,MIC,Bacillus spizizenii [4],1.56 mg/L
same,LD50 at 336 h,[5],> 5000 mg/kg
same,MIC,Pseudomonas aeruginosa [6],3.13 mg/L
same,MIC,Escherichia coli [7],1.56 mg/L
same,IC50,[8],2.69 µM
same,MIC,Staphylococcus aureus [9],3.13 mg/L
same,LD50 at 336 h,[10],> 5000 mg/kg
same,LD50 at 336 h,[11],> 5000 mg/kg
Cc1ncc([N+](=O)[O-])n1CCOC(=O)Nc1ccc(OS(=O)(=O)c2ccc(C(F)(F)F)cc2)cc1,IC50,Entamoeba histolytica [1],0.24 µM
COc1cc2c(Nc3ccc(Br)cc3F)ncnc2cc1OCC1CCN(C(=O)Cn2cncc2[N+](=O)[O-])CC1,inhibition at 0.5 µM,A549 [12],62%
same,inhibition at 0.5 µM,NCI-H446,59.9%
Cc1ncc([N+](=O)[O-])n1CCSc1ccccc1,selectivity ratio,[13],11
same,EC50,[14],2.23 µM
same,CC50 at 120 h,[15],24.8 µM
CCn1cc(C(=O)O)c(=O)c2cc(F)c(N3CCNCC3)cc21 [NORFLOXACIN],MIC,Pseudomonas aeruginosa [16],1600 µM
same,MIC,Acinetobacter baumannii,803 µM
same,MIC,Enterococcus faecalis,803 µM
same,MIC,Escherichia coli [17],1600 µM
COc1ccc(-c2cc(C(=O)OCCn3c([N+](=O)[O-])cnc3C)nn2-c2ccc(Cl)cc2)cc1,MIC,Staphylococcus aureus [18],7.82 mg/L
same,MIC,Pseudomonas aeruginosa [19],1.96 mg/L
same,MIC,Escherichia coli [20],3.91 mg/L
same,IC50,[21],1.67 µM
same,MIC,Bacillus spizizenii [22],7.82 mg/L
CCNc1ccc2c3c(cccc13)C(=O)N(CC(O)Cn1c([N+](=O)[O-])cnc1C)C2=O (centres undefined),Ratio,Proteus vulgaris [23],10
same,MIC,Proteus vulgaris [24],2 µM
same,Ratio,Proteus vulgaris [25],95
same,MIC,Staphylococcus aureus [26],40 µM
same,MIC,Shigella dysenteriae,10 µM
same,Ratio,Proteus vulgaris [27],50
same,MIC,Saccharomyces cerevisiae,10 µM
same,MIC,Cyberlindnera jadinii,20 µM
same,MIC,Escherichia coli [28],40 µM
Cc1ncc([N+](=O)[O-])n1CCOC(=O)Nc1ccc([N+](=O)[O-])cc1,CC50 at 48 h,[29],> 100 µM
same,selectivity ratio,[30],> 116
same,selectivity ratio,[31],> 10
same,IC50,Trichomonas vaginalis,9.99 µM
same,IC50,Giardia intestinalis [32],0.86 µM
Cc1ncc([N+](=O)[O-])n1CCn1cc(CN2C(=O)C(=C3OCCO3)c3cc(Br)ccc32)nn1,IC50,Entamoeba histolytica [33],1.5 µM
same,IC50,Giardia intestinalis [34],0.8 µM
Cc1ncc([N+](=O)[O-])n1CCOc1cc(O)c2c(=O)c(-c3ccc(O)cc3)coc2c1,MIC,Helicobacter pylori [35],0.39 mg/L
same,Ratio,Helicobacter pylori [36],>50
same,MIC,Helicobacter pylori [37],0.39 mg/L
same,MIC,Helicobacter pylori [38],0.39 mg/L
same,Ratio,Helicobacter pylori [39],>50
same,Ratio,Helicobacter pylori [40],>50
same,MIC,Helicobacter pylori [41],0.39 mg/L
same,Ratio,Helicobacter pylori [42],>50
same,MIC,Helicobacter pylori [43],0.39 mg/L
same,Ratio,Helicobacter pylori [44],>50
